Source: ChEMBL document CHEMBL4602617, “Discovery and optimization of heteroaryl piperazines as potent and selective PI3Kδ inhibitors” (Bioorg Med Chem Lett, 2020)

What was measured:
[1] = target: Muscarinic acetylcholine receptor M2 (Homo sapiens) (UniProt P08172); assay: Displacement of [3H]N-Methylscopolamine from full length human recombinant Muscarinic M2 receptor expressed in CHOK1 cells at 10 uM measured after 120 mins by radiometric scintillation analysis relative to control; type: cell-based; conditions: CHO-K1
[2] = target: Endothelin receptor type B (Homo sapiens) (UniProt P24530); assay: Displacement of [125I]endothelin-1 from recombinant full length human recombinant ETB receptor expressed in CHO-K1 cells at 10 uM measured after 120 mins by radiometric scintillation analysis relative to control; type: cell-based
[3] = target: Ribosomal protein S6 kinase alpha-5 (Homo sapiens, UniProt O75582); assay: Inhibition of recombinant full length human GST-tagged RPS6KA5 expressed in baculovirus expression system using ser/Thr01 peptide as substrate incubated for 60 mins in presence of ATP by Z'-LYTE assay
Sequence of Ribosomal protein S6 kinase alpha-5 (O75582 whole entry): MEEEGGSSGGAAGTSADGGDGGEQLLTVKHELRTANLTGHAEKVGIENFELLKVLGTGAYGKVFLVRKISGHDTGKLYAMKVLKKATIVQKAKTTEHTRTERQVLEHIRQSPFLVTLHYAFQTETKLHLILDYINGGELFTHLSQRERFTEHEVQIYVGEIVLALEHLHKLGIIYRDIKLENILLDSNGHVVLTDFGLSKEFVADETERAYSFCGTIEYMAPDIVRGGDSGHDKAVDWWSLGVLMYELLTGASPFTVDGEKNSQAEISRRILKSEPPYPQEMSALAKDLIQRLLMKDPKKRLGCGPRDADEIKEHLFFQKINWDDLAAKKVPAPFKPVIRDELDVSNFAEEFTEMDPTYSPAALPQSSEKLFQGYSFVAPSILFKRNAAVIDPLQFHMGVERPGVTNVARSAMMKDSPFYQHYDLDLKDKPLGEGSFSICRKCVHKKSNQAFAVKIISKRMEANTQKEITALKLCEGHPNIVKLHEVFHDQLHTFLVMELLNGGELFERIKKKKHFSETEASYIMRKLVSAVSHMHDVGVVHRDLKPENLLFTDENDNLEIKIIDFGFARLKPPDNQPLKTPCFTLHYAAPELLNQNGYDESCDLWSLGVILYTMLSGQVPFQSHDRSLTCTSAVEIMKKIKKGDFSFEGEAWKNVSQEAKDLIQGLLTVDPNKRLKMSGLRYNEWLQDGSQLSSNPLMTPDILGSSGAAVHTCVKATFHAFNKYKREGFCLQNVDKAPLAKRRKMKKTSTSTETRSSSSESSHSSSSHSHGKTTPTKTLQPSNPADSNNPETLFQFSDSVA

[4] = target: cGMP-dependent protein kinase 2 (Homo sapiens, UniProt Q13237); assay: Inhibition of recombinant full length GST-tagged human PKG2 expressed in baculovirus expression system using Ser/Thr 01 as substrate after 1 hr in presence of ATP by Z'-LYTE assay
Sequence of cGMP-dependent protein kinase 2 (Q13237 whole entry, the tested form may be a part): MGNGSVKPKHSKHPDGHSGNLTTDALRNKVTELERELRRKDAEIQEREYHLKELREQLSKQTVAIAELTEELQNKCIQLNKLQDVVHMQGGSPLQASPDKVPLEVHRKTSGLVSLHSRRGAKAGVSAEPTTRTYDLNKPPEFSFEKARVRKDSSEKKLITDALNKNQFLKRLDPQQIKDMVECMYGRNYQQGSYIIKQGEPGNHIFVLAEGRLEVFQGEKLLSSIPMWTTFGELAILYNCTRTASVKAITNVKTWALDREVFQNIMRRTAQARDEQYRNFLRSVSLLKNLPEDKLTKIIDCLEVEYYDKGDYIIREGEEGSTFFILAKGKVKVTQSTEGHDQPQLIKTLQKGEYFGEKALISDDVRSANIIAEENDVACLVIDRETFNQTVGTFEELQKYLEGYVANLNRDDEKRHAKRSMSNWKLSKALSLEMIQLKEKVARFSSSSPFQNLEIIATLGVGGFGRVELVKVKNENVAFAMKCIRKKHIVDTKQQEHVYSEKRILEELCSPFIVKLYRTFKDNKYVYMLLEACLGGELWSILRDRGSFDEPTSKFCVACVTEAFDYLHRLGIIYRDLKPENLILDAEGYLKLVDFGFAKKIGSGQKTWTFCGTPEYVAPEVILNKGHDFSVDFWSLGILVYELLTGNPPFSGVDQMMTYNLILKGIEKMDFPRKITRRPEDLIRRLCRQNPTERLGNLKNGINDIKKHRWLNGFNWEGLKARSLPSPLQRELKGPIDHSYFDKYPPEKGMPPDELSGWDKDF

Activin receptor type-1B = Activin receptor type-1B (Homo sapiens, UniProt P36896); assay: Inhibition of recombinant GST-tagged human ALK4 (150 to 505 residues) expressed in baculovirus expression system using Ser/Thr-16 peptide as substrate incubated for 60 mins in presence of ATP by Z'-LYTE assay
Sequence of Activin receptor type-1B (P36896 whole entry, the tested form may be a part): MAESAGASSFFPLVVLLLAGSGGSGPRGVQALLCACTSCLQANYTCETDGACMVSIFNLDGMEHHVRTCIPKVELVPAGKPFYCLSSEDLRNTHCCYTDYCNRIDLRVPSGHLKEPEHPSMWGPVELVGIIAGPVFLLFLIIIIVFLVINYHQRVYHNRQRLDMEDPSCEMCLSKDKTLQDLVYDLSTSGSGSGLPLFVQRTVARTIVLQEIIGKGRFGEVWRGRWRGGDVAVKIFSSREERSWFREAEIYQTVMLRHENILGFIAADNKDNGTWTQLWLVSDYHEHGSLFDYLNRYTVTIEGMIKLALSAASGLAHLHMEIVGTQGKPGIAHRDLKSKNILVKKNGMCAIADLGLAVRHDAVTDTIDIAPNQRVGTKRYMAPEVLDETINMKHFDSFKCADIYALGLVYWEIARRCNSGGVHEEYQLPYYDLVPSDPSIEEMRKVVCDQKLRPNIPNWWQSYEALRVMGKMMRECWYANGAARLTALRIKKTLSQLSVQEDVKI

[5] = target: Myosin light chain kinase 2, skeletal/cardiac muscle (Homo sapiens, UniProt Q9H1R3); assay: Inhibition of recombinant full length human GST-tagged MYLK2 expressed in baculovirus expression system using […] peptide as substrate incubated for 60 mins in presence of ATP by Z'-LYTE assay
[6] = target: Proto-oncogene tyrosine-protein kinase ROS (Homo sapiens, UniProt P08922); assay: Inhibition of recombinant human GST-tagged ROS1 cytoplasmic domain expressed in baculovirus expression system using tyrosine-2 peptide as substrate incubated for 60 mins in presence of ATP by Z'-LYTE assay
[7] = target: Epidermal growth factor receptor (Homo sapiens, UniProt P00533, T790M); assay: Inhibition of human recombinant GST-tagged EGFR T790M mutant cytoplasmic domain expressed in baculovirus expression system using tyrosine 4 peptide as substrate after 60 mins in presence of ATP FRET based Z'-LYTE assay
[8] = target: Epidermal growth factor receptor (Homo sapiens, UniProt P00533); assay: Inhibition of recombinant human GST-tagged EGFR expressed in baculovirus expression system using tyr-04 peptide as substrate incubated for 60 mins in presence of ATP by Z'-LYTE assay
[9] = target: 5-hydroxytryptamine receptor 1B (Rattus norvegicus) (UniProt P28564); assay: Displacement of [125I]cyanopindolol from 5HT1B receptor in Wistar rat cerebral cortical membranes at 10 uM measured after 90 mins by radiometric scintillation analysis relative to control
Sequence of 5-hydroxytryptamine receptor 1B (Rattus norvegicus) (P28564 whole entry, the tested form may be a part): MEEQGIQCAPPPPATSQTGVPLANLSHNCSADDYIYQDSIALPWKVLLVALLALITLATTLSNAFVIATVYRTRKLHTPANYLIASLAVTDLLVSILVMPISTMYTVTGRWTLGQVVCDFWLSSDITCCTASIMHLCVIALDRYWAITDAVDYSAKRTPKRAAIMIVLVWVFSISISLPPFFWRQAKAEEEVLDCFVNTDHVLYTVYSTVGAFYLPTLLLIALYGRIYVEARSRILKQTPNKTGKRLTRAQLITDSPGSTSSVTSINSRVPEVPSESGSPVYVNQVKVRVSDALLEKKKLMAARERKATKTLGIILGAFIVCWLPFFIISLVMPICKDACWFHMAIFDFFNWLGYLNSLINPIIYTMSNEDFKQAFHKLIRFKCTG

[10] = target: Fibroblast growth factor receptor 3 (Homo sapiens, UniProt P22607); assay: Inhibition of recombinant His-tagged human FGFR3 (399 to 806 residues) cytoplasmic domain expressed in baculovirus expression system using Tyr 04 peptide as substrate after 1 hr in presence of ATP by Z'-LYTE assay
[11] = target: Tyrosine-protein kinase JAK1 (Homo sapiens, UniProt P23458); assay: Inhibition of human recombinant GST tagged JAK1 expressed in baculovirus expression system using Tyr6 peptide as substrate measured after 1 hr in presence of ATP by Z'-LYTE assay
[12] = target: Serine/threonine-protein kinase TBK1 (Homo sapiens, UniProt Q9UHD2); assay: Inhibition of recombinant full length human GST-tagged TBK1 expressed in insect expression system using serine/threonine-5 peptide as substrate incubated for 60 mins in presence of ATP by Z'-LYTE assay
Caspase-8 (Homo sapiens) = Caspase-8 (Homo sapiens) (UniProt Q14790); assay: Inhibition of recombinant human caspase 8 (217 to end residues) expressed in Escherichia coli at 10 uM using Ac-IETD-AMC as substrate after 60 mins by spectrophotometric analysis relative to control
Sequence of Caspase-8 (Homo sapiens) (Q14790 217-374 limits assumed): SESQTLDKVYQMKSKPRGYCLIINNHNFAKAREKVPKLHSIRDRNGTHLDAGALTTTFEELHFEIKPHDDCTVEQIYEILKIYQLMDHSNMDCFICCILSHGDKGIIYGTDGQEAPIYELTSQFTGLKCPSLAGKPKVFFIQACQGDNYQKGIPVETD
Sequence of Caspase-8 (Homo sapiens) (Q14790 385-479 limits assumed): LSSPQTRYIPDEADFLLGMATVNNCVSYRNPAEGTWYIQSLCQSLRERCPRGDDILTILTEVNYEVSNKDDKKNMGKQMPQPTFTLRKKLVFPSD

[13] = target: Fibroblast growth factor receptor 2 (Homo sapiens, UniProt P21802); assay: Inhibition of recombinant His-tagged human FGFR2 (403 to 822 residues) cytoplasmic domain expressed in baculovirus expression system using Tyr 04 peptide as substrate after 1 hr in presence of ATP by Z'-LYTE assay
Cytochrome P450 2D6 = Cytochrome P450 2D6 (Homo sapiens, UniProt P10635); assay: Inhibition of CYP2D6 (unknown origin)
Sequence of Cytochrome P450 2D6 (P10635 whole entry): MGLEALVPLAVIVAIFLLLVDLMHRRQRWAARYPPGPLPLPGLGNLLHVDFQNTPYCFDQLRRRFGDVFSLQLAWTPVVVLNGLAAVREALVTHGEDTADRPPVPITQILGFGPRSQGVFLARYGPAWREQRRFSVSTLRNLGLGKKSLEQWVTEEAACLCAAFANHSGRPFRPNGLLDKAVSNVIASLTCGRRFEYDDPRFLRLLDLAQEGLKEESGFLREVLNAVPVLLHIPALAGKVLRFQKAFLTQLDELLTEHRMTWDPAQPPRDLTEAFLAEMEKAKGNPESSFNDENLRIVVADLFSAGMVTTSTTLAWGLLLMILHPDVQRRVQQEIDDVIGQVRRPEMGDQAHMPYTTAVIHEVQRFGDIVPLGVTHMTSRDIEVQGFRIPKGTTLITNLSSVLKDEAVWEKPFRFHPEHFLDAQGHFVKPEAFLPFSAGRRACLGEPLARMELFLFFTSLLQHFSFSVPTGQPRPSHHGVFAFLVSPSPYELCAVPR

[14] = target: Cysteinyl leukotriene receptor 2 (Homo sapiens) (UniProt Q9NS75); assay: Inhibition of human CYSLt2 receptor at 10 uM relative to control
Sequence of Cysteinyl leukotriene receptor 2 (Homo sapiens) (Q9NS75 whole entry, the tested form may be a part): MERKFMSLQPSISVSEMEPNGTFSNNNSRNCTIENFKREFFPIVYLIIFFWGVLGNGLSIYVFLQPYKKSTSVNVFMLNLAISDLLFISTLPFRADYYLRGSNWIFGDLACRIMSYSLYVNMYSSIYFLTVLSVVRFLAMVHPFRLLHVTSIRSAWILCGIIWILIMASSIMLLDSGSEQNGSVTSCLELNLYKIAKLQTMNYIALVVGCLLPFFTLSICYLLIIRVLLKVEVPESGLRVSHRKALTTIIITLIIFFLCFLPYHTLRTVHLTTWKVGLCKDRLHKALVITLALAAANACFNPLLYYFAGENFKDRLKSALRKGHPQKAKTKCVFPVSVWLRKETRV

[15] = target: Mitogen-activated protein kinase kinase kinase 8 (Homo sapiens, UniProt P41279); assay: Inhibition of recombinant human GST-tagged MAP3K8 catalytic domain expressed in baculovirus expression system using serine/threonine-3 peptide as substrate incubated for 60 mins in presence of ATP by Z'-LYTE assay
[16] = target: Histamine H4 receptor (Homo sapiens) (UniProt Q9H3N8); assay: Inhibition of human histamine H4 receptor at 10 uM relative to control
[17] = target: Serine/threonine-protein kinase B-raf (Homo sapiens, UniProt P15056); assay: Inhibition of recombinant full length human GST-tagged BRAF expressed in baculovirus expression system using tyrosine-1 peptide as substrate incubated for 60 mins in presence of ATP by Z'-LYTE assay
[18] = target: Tyrosine-protein kinase ABL1 (Homo sapiens, UniProt P00519, Y253F); assay: Inhibition of recombinant full length human His-tagged ABL1 Y253F mutant cytoplasmic domain expressed in baculovirus expression system using tyrosine-2 peptide as substrate incubated for 60 mins in presence of ATP by Z'-LYTE assay
Cytochrome P450 2C9 = Cytochrome P450 2C9 (Homo sapiens, UniProt P11712); assay: Inhibition of CYP2C9 (unknown origin); type: ADME
[19] = target: Alpha-1D adrenergic receptor (Homo sapiens) (UniProt P25100); assay: Displacement of [3H]prazosin from recombinant full length human alpha1d adrenergic receptor expressed in HEK293 cell membranes at 10 uM measured after 60 mins by scintillation counting method relative to control
[20] = target: Tyrosine-protein kinase Fer (Homo sapiens, UniProt P16591); assay: Inhibition of recombinant GST-tagged human FER (541 to 822 residues) cytoplasmic domain expressed in baculovirus expression system using Tyr 05 peptide as substrate after 1 hr in presence of ATP by Z'-LYTE assay
[21] = target: Serine/threonine-protein kinase Nek4 (Homo sapiens, UniProt P51957); assay: Inhibition of recombinant full length human GST-tagged NEK4 expressed in baculovirus expression system using serine/threonine-7 peptide as substrate incubated for 60 mins in presence of ATP by Z'-LYTE assay
Sequence of Serine/threonine-protein kinase Nek4 (P51957 whole entry): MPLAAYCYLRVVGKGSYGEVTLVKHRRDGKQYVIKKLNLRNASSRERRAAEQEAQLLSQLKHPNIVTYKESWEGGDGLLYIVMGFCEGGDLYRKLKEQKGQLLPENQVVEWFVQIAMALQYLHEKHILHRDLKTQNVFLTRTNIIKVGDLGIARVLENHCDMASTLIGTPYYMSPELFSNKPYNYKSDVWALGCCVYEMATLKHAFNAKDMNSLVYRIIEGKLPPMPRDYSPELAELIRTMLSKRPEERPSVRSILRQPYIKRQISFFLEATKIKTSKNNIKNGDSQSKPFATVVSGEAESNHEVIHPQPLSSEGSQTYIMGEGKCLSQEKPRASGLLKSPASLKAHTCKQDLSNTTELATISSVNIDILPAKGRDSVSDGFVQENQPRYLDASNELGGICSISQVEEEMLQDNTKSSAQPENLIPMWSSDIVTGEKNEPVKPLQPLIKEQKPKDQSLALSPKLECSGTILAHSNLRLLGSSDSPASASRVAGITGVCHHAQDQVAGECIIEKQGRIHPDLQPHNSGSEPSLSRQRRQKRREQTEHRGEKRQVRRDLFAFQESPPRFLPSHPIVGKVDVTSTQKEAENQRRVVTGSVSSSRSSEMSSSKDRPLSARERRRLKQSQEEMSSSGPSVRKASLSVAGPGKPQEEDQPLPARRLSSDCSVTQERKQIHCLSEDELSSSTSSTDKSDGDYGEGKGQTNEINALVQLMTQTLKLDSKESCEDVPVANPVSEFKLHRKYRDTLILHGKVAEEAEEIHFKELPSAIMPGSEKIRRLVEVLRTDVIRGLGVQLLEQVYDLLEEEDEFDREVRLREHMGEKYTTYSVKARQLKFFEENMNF

[22] = target: Protein kinase C iota type (Homo sapiens, UniProt P41743); assay: Inhibition of recombinant full length human His-tagged PRKCI expressed in baculovirus expression system using serine/threonine-7 peptide as substrate incubated for 60 mins in presence of ATP by Z'-LYTE assay
Sequence of Protein kinase C iota type (P41743 whole entry): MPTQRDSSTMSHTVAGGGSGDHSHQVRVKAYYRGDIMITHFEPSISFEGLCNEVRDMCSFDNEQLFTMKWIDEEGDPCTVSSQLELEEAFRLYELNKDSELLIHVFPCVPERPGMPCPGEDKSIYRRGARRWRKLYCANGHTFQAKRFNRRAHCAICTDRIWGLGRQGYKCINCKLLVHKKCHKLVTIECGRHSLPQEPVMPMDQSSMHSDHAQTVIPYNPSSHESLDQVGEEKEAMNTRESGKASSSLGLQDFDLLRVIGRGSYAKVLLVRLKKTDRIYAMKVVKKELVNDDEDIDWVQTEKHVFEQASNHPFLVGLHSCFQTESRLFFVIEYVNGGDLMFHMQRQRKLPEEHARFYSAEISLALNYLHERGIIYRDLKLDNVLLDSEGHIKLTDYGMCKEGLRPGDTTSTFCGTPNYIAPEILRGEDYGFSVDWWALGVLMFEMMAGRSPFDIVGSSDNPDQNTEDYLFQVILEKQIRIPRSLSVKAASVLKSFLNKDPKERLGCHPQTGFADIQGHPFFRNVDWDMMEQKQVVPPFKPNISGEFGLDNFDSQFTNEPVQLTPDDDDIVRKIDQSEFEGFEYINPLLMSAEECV

**Q.** With `C[C@@H]1C[C@H]1C(=O)N1CCN(c2cnc(C#N)c(-c3cnn(C)c3)n2)C[C@H]1C` as the molecule, how does the inhibition [1] read?
**A.** Its inhibition is 1%.

**Q.** And the inhibition [2]?
**A.** Its inhibition is 2%.

**Q.** What about the IC50 [3] of the same molecule?
**A.** The IC50 was greater than 100 µM.

**Q.** And the IC50 [4]?
**A.** The IC50 was greater than 100 µM.

**Q.** And the IC50 (Activin receptor type-1B)?
**A.** The IC50 was greater than 100 µM.

**Q.** What about the IC50 [5] of the same molecule?
**A.** Its IC50 is greater than 100 µM.

**Q.** And the IC50 [6]?
**A.** The IC50 was greater than 100 µM.

**Q.** And the IC50 [7]?
**A.** The IC50 was greater than 100 µM.

**Q.** What about the IC50 [8] of the same molecule?
**A.** Its IC50 is greater than 100 µM.

**Q.** What about the inhibition [9] of the same molecule?
**A.** Its inhibition is -5%.

**Q.** What about the IC50 [10] of the same molecule?
**A.** The IC50 was greater than 100 µM.

**Q.** What about the IC50 [11] of the same molecule?
**A.** The IC50 was greater than 100 µM.

**Q.** And the IC50 [12]?
**A.** The IC50 was greater than 100 µM.

**Q.** What about the inhibition (Caspase-8 (Homo sapiens)) of the same molecule?
**A.** The inhibition was 2%.

**Q.** What about the IC50 [13] of the same molecule?
**A.** The IC50 was greater than 100 µM.

**Q.** What about the IC50 (Cytochrome P450 2D6) of the same molecule?
**A.** Its IC50 is greater than 50 µM.

**Q.** And the inhibition [14]?
**A.** The inhibition was 15%.

**Q.** And the IC50 [15]?
**A.** Its IC50 is greater than 100 µM.

**Q.** What about the inhibition [16] of the same molecule?
**A.** The inhibition was 1%.

**Q.** What about the IC50 [17] of the same molecule?
**A.** Its IC50 is greater than 100 µM.

**Q.** What about the IC50 [18] of the same molecule?
**A.** Its IC50 is greater than 100 µM.

**Q.** What about the IC50 (Cytochrome P450 2C9) of the same molecule?
**A.** The IC50 was greater than 50 µM.

**Q.** What about the inhibition [19] of the same molecule?
**A.** Its inhibition is 5%.

**Q.** And the IC50 [20]?
**A.** Its IC50 is greater than 100 µM.

**Q.** And the IC50 [21]?
**A.** The IC50 was greater than 100 µM.

**Q.** And the IC50 [22]?
**A.** The IC50 was greater than 100 µM.
